≈ marks a conversion by molar mass, not a printed value.
How the values were obtained:
[1] = Plasma concentration in Sprague-Dawley rat at 5 mg/kg, po after 4 hrs by LC-MS/MS analysis; type: ADME, organism-based; parameters: dose 5 mg/kg, route oral
[2] = Solubility of the compound; type: physicochemical
[3] = Plasma concentration in Sprague-Dawley rat at 30 mg/kg, po after 4 hrs by LC-MS/MS analysis; type: ADME, organism-based; parameters: dose 30 mg/kg, route oral
[4] = Plasma concentration in Sprague-Dawley rat at 5 mg/kg, po after 1 hr by LC-MS/MS analysis; type: ADME, organism-based; parameters: dose 5 mg/kg, route oral
[5] = Plasma concentration in Sprague-Dawley rat at 5 mg/kg, po after 6 hrs by LC-MS/MS analysis; type: ADME, organism-based; parameters: dose 5 mg/kg, route oral
[6] = Plasma concentration in Sprague-Dawley rat at 5 mg/kg, po after 2 hrs by LC-MS/MS analysis; type: ADME, organism-based; parameters: dose 5 mg/kg, route oral

Structure (SMILES) | concentration at 4 h [1] | solubility [2] | concentration at 4 h [3] | concentration at 1 h [4] | concentration at 6 h [5] | concentration at 2 h [6]
O=C(NCc1ccc(Cl)cc1Cl)N1CCC(Oc2ccccc2)CC1 | 100 nM | 3.4 µg/mL (≈ 8.96 µM) | – | – | – | –
O=C(NCc1ccc(Cl)cc1Cl)N1CCC(Oc2ncccn2)CC1 | 1300 nM | 174 µg/mL (≈ 456 µM) | – | – | – | –
O=C(Nc1ccc(OC(F)(F)F)cc1)N1CCC(n2cccc2)CC1 | – | – | 2800 nM | – | – | –
O=C(O)c1ccc(OC2CCN(C(=O)NCc3ccc(Cl)cc3Cl)CC2)cc1 | 3800 nM | – | – | 1700 nM | 5430 nM | 2660 nM
